Results: ChEMBL document CHEMBL1145280, “Control of hepatitis C: a medicinal chemistry perspective” (J Med Chem, 2005)
pIC50: −log10 of the molar value. Values belong to the molecule of their own block, whether it stands above or below them. Positions of bridges follow the written chain, without caps; N, C: chain ends. Non-standard residues stand in square brackets, D forms with d. Residues, ends and D or L forms follow the SMILES beside them. Chains are numbered I, II in the order given. Ahx = NCCCCCC(=O)O

Key:
[1] = biological target: Genome polyprotein (Hepatitis C virus genotype 1a (isolate 1) (HCV), UniProt P26664); test: Inhibitory concentration against hepatitis C virus NS2/3 protease; parameters: species or system Hepacivirus hominis
[2] = biological target: T1, Hepatitis C virus NS4A protein (Hepatitis C virus, UniProt D2K2A8); test: Inhibitory concentration against hepatitis C virus NS4A active site; parameters: species or system Hepacivirus hominis
T1 sequence (D2K2A8 whole entry): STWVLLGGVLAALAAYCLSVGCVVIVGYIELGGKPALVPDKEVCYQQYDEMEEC

[3] = biological target: T2, NS3 (Hepatitis C virus, UniProt A3EZJ3); test: Inhibitory concentration against hepatitis C virus NS4A binding region of NS3 protease; parameters: species or system Hepacivirus hominis
[4] = biological target: NS3 (Hepatitis C virus) (UniProt A3EZJ3); test: Percent inhibition against hepatitis C virus helicase at 25 ug/mL; Range 6-13; conditions: Hepacivirus hominis
[5] = biological target: T2, NS3; test: Inhibitory concentration against hepatitis C virus helicase; range 0.6-0.7; parameters: species or system Hepacivirus hominis
[6] = biological target: T1, Hepatitis C virus NS4A protein; test: Inhibitory concentration against hepatitis C NS4A protease; parameters: species or system Hepacivirus hominis

T2 sequence (A3EZJ3 whole entry): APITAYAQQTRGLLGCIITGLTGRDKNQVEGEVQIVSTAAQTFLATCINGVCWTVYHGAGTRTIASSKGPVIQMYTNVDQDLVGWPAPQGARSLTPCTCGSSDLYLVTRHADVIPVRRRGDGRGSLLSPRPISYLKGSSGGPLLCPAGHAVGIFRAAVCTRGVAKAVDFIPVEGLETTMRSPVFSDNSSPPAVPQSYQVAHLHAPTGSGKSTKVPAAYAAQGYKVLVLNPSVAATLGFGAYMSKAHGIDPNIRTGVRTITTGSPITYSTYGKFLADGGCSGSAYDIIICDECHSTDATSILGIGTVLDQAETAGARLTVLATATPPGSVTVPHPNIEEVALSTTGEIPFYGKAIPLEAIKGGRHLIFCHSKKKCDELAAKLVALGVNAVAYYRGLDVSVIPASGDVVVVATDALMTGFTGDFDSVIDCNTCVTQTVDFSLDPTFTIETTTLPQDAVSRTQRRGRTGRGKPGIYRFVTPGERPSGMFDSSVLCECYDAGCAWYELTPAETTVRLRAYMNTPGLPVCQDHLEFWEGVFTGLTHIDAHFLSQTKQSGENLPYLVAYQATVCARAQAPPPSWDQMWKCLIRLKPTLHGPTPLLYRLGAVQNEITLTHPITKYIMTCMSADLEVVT
Chain of Genome polyprotein (P26664 810-1026 limits assumed): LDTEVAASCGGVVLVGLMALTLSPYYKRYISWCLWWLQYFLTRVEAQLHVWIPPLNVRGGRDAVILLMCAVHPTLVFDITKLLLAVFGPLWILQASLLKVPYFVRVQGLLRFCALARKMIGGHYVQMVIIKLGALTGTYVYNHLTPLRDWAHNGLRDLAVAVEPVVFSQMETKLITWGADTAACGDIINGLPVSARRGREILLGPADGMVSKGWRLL
Chain of Genome polyprotein (P26664 1027-1657 limits assumed): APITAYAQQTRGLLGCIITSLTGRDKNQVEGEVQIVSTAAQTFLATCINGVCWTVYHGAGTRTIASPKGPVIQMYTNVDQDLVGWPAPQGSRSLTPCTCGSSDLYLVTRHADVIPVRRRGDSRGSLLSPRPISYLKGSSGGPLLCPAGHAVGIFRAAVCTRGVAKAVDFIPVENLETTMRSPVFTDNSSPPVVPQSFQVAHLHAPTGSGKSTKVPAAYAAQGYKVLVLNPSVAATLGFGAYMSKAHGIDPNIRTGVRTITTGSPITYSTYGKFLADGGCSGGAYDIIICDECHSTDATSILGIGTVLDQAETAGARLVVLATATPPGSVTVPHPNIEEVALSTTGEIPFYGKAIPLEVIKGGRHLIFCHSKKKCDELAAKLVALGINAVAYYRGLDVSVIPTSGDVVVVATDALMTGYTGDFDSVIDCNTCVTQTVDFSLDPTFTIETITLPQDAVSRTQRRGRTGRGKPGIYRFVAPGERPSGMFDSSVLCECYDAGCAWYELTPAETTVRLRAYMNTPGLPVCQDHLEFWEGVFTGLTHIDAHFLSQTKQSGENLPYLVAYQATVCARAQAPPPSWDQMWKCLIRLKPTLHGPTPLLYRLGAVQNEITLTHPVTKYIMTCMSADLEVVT
Chain of NS3 (Hepatitis C virus) (A3EZJ3 as listed by the source): as the sequence (A3EZJ3 whole entry) above

- pIC50 [2]: 6.70
Molecule: H-KGSLVIRGVIVVCK-OH

- pIC50 [3]: 5.52
Molecule: CC[C@H](C)[C@H](NC(=O)[C@H](CCCN=C(N)N)NC(=O)CNC(=O)[C@@H](NC(=O)[C@@H](NC(=O)[C@@H](NC(=O)[C@@H](NC(=O)[C@@H](N)CS)C(C)C)C(C)C)[C@@H](C)CC)C(C)C)C(=O)N[C@H](C(=O)N[C@@H](CC(C)C)C(=O)N[C@@H](CO)C(=O)NCC(=O)N[C@@H](CCCCN)C(=O)NCCCC[C@H](NC(=O)CCCCCNC(=O)[C@H](CS)NC(=O)[C@H](CS)NC(=O)[C@@H](NC(=O)[C@@H](NC(=O)[C@H](CC(=O)O)NC(=O)[C@@H](N)CCC(=O)O)C(C)C)C(C)C)C(=O)O)C(C)C (I: H-CVVIVGRIVLSGK / II: H-EDVVCC[Ahx]K-OH; amide I:C-II:8)

- inhibition [4]: 13%
Molecule: O=C(CCCCC(=O)Nc1nc2ccccc2[nH]1)Nc1nc2ccccc2[nH]1

- pIC50 [2]: 6.22
Molecule: H-SLVIRGVIV-OH

- pIC50 [5]: 6.15
Molecule: CN1CCN(CCCN2c3ccccc3Sc3ccc(C(F)(F)F)cc32)CC1 [TRIFLUOPERAZINE]

The next lines start with the molecule.

Molecule: H-KGSVVIVGRIILSGRK-OH
- pIC50 [1]: 5.24

Molecule: CC[C@H](C)[C@H](NC(=O)[C@H](CCCNC(=N)N)NC(=O)CNC(=O)[C@@H](NC(=O)[C@@H](NC(=O)[C@@H](NC(=O)[C@@H](NC(=O)[C@H](CS)NC(=O)CCCCCNC(=O)CCCCCNC(=O)[C@H](CS)NC(=O)[C@H](CS)NC(=O)[C@@H](NC(=O)[C@@H](NC(=O)[C@H](CC(=O)O)NC(=O)[C@@H](N)CCC(=O)O)C(C)C)C(C)C)C(C)C)C(C)C)[C@@H](C)CC)C(C)C)C(=O)N[C@H](C(=O)N[C@@H](CC(C)C)C(=O)N[C@@H](CO)C(=O)NCC(=O)N[C@@H](CCCCN)C(=O)O)C(C)C (H-EDVVCC[Ahx][Ahx]CVVIVGRIVLSGK-OH)
- pIC50 [3]: 6.22

Molecule: Ac-RGGSVVIVGRIILSGRK-OH
- pIC50 [1]: 5.47

Molecule: CC[C@H](C)[C@H](NC(=O)[C@H](CCCN=C(N)N)NC(=O)CNC(=O)[C@@H](NC(=O)[C@@H](NC(=O)[C@@H](NC(=O)[C@@H](NC(=O)[C@H](CS)NC(=O)CCCCCNC(=O)[C@H](CS)NC(=O)[C@H](CS)NC(=O)[C@@H](NC(=O)[C@@H](NC(=O)[C@H](CC(=O)O)NC(=O)[C@@H](N)CCC(=O)O)C(C)C)C(C)C)C(C)C)C(C)C)[C@@H](C)CC)C(C)C)C(=O)N[C@H](C(=O)N[C@@H](CC(C)C)C(=O)N[C@@H](CO)C(=O)NCC(=O)N[C@@H](CCCCN)C(=O)N[C@@H](CCCCN)C(=O)O)C(C)C (H-EDVVCC[Ahx]CVVIVGRIVLSGKK-OH)
- pIC50 [3]: 5.52

Molecule: H-CVVIVGRIVLSGK-OH
- pIC50 [6]: 6.70
